In patent US20140357713A1, “ANTIMICROBIAL COMPOUNDS AND METHODS OF USE” (NexMed Holdings, Inc., priority 2012, published 2014):
Like-named read-outs stand apart in the source and are kept apart here.

Assays:
[1] = tested on: Pseudomonas aeruginosa (ATCC 27853); experiment: Minimum inhibitory concentration (MIC) assay, Example 33; type: cell-based; details: Pseudomonas aeruginosa
Procedure, shortened: (§1)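 Broth microdilution MIC per CLSI guidelines, in CAMHB with serial 2-fold compound dilutions. Bacterial inocula were adjusted to a 0.5 McFarland standard, then diluted 1:100 and 1:2 in the wells. Plates were incubated at 35 °C, and the MIC was read according to CLSI.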

[2] = tested on: Escherichia coli (ATCC 25922); experiment: as above; type: cell-based; details: Escherichia coli
Procedure, shortened: as §1

Escherichia coli = experiment: Extended time kill study, Example 34 (0 to 24 h); type: cell-based
Protocol: (§2) Time kill studies. Strain suspensions were prepared as described above for the MIC test, and strain suspensions and compound solutions were mixed in the same volume. Samples were removed at specified times including 0 min, 30 sec, 1 min and 5 mins, were diluted in the test medium and streaked on agar. Colonies were counted after 24 to 48 hrs of incubation.
(§3) The time kill studies of Example 33 were extended for five compounds (Nex-59, Nex-60, Nex-61, Nex-62, and Nex-88) using the same methods at longer time periods and at higher multiples of MIC. Nex-88 is a code number for DDAIP.HCl from a different supplier.

Aspergillus niger = experiment: Extended time kill study, Example 34 (0 to 24 h); type: cell-based
Protocol: as §2, §3

Candida albicans = experiment: Extended time kill study, Example 34 (0 to 24 h); type: cell-based
Protocol: as §2, §3

[3] = tested on: Staphulococcus aureus (ATCC 29213); experiment: Minimum inhibitory concentration (MIC) assay, Example 33; type: cell-based, Staphylococcus aureus; details: Staphylococcus aureus
Procedure, shortened: as §1

MIC ([1]; ATCC27853, Table 19 summary, read-out: MIC): 6250 µg/mL
MIC ([1]; ATCC27853, n = 1, read-out: MIC P. aeruginosa): 6250 µg/mL
MIC ([1]; ATCC27853, n = 2, read-out: MIC P. aeruginosa): 6250 µg/mL
MIC ([2]; ATCC25922, Table 19 summary of Example 33 and Example 35, read-out: MIC): 100 µg/mL
MIC ([2]; ATCC25922, n = 1, read-out: MIC E. coli): 100 µg/mL
MIC ([2]; ATCC25922, n = 2, read-out: MIC E. coli): 100 µg/mL
MIC ([3]; ATCC29213, Table 19 summary, read-out: MIC): 25 µg/mL
MIC ([3]; ATCC29213, n = 1, read-out: MIC S. aureus): 25 µg/mL
MIC ([3]; ATCC29213, n = 2, read-out: MIC S. aureus): 25 µg/mL
SMILES: CCCCCCCCCCCCOC(=O)C(C)NCCN(CC)CC.Cl (stereo not drawn) [Nex-62, Dodecyl 2-((2-(diethylamino)ethyl)amino)propanoate dihydrochloride]
Viable counts, Escherichia coli time kill study (Escherichia coli; 1 × MIC, 1 h): 1 Log10 CFU/mL
Viable counts, Escherichia coli time kill study (Escherichia coli; 1 × MIC, 2 h): 1 Log10 CFU/mL
Viable counts, Escherichia coli time kill study (Escherichia coli; 1 × MIC, 4 h): <1 Log10 CFU/mL
Viable counts, Escherichia coli time kill study (Escherichia coli; 1 × MIC, 6 h): 2.18 Log10 CFU/mL
Viable counts, Escherichia coli time kill study (Escherichia coli; 1 × MIC, 24 h): 7.99 Log10 CFU/mL
Viable counts, Escherichia coli time kill study (Escherichia coli; 1×MIC, time 0): 5.06 Log10 CFU/mL
Viable counts, Escherichia coli time kill study (Escherichia coli; 2 × MIC, 1 h): <1 Log10 CFU/mL
Viable counts, Escherichia coli time kill study (Escherichia coli; 2 × MIC, 2 h): <1 Log10 CFU/mL
Viable counts, Escherichia coli time kill study (Escherichia coli; 2 × MIC, 4 h): <1 Log10 CFU/mL
Viable counts, Escherichia coli time kill study (Escherichia coli; 2 × MIC, 6 h): <1 Log10 CFU/mL
Viable counts, Escherichia coli time kill study (Escherichia coli; 2 × MIC, 24 h): <1 Log10 CFU/mL
Viable counts, Escherichia coli time kill study (Escherichia coli; 2 × MIC, time 0): 5.18 Log10 CFU/mL
Viable counts, Escherichia coli time kill study (Escherichia coli; 4 × MIC, 1 h): <1 Log10 CFU/mL
Viable counts, Escherichia coli time kill study (Escherichia coli; 4 × MIC, 2 h): <1 Log10 CFU/mL
Viable counts, Escherichia coli time kill study (Escherichia coli; 4 × MIC, 4 h): <1 Log10 CFU/mL
Viable counts, Escherichia coli time kill study (Escherichia coli; 4 × MIC, 6 h): <1 Log10 CFU/mL
Viable counts, Escherichia coli time kill study (Escherichia coli; 4 × MIC, 24 h): <1 Log10 CFU/mL
Viable counts, Escherichia coli time kill study (Escherichia coli; 4 × MIC, time 0): 5.12 Log10 CFU/mL
Viable counts in Log10 CFU/mL (Aspergillus niger; 1 × MIC, 1 h): 5.53 Log10 CFU/mL
Viable counts in Log10 CFU/mL (Aspergillus niger; 1 × MIC, 2 h): 5.51 Log10 CFU/mL
Viable counts in Log10 CFU/mL (Aspergillus niger; 1 × MIC, 4 h): 5.15 Log10 CFU/mL
Viable counts in Log10 CFU/mL (Aspergillus niger; 1 × MIC, 6 h): 4.78 Log10 CFU/mL
Viable counts in Log10 CFU/mL (Aspergillus niger; 1 × MIC, 24 h): 4 Log10 CFU/mL
Viable counts in Log10 CFU/mL (Aspergillus niger; 1 × MIC, 0 h): 5.51 Log10 CFU/mL
Viable counts in Log10 CFU/mL (Aspergillus niger; 2 × MIC, 1 h): 5.48 Log10 CFU/mL
Viable counts in Log10 CFU/mL (Aspergillus niger; 2 × MIC, 2 h): 5.57 Log10 CFU/mL
Viable counts in Log10 CFU/mL (Aspergillus niger; 2 × MIC, 4 h): 5.08 Log10 CFU/mL
Viable counts in Log10 CFU/mL (Aspergillus niger; 2 × MIC, 6 h): 5.38 Log10 CFU/mL
Viable counts in Log10 CFU/mL (Aspergillus niger; 2 × MIC, 24 h): 5.58 Log10 CFU/mL
Viable counts in Log10 CFU/mL (Aspergillus niger; 2 × MIC, 0 h): 5.49 Log10 CFU/mL
Viable counts in Log10 CFU/mL (Aspergillus niger; 4 × MIC, 1 h): 5.49 Log10 CFU/mL
Viable counts in Log10 CFU/mL (Aspergillus niger; 4 × MIC, 2 h): 5.49 Log10 CFU/mL
Viable counts in Log10 CFU/mL (Aspergillus niger; 4 × MIC, 4 h): 5.00 Log10 CFU/mL
Viable counts in Log10 CFU/mL (Aspergillus niger; 4 × MIC, 6 h): 5.20 Log10 CFU/mL
Viable counts in Log10 CFU/mL (Aspergillus niger; 4 × MIC, 24 h): 3.85 Log10 CFU/mL
Viable counts in Log10 CFU/mL (Aspergillus niger; 4 × MIC, 0 h): 5.56 Log10 CFU/mL
Viable counts in Log10 CFU/mL (Candida albicans; 1 × MIC, 1 h): 5.75 Log10 CFU/mL
Viable counts in Log10 CFU/mL (Candida albicans; 1 × MIC, 2 h): 5.78 Log10 CFU/mL
Viable counts in Log10 CFU/mL (Candida albicans; 1 × MIC, 4 h): 6.04 Log10 CFU/mL
Viable counts in Log10 CFU/mL (Candida albicans; 1 × MIC, 6 h): 6.21 Log10 CFU/mL
Viable counts in Log10 CFU/mL (Candida albicans; 1 × MIC, 24 h): >6 Log10 CFU/mL
Viable counts in Log10 CFU/mL (Candida albicans; 1 × MIC, 0 h): 5.74 Log10 CFU/mL
Viable counts in Log10 CFU/mL (Candida albicans; 2 × MIC, 1 h): 5.68 Log10 CFU/mL
Viable counts in Log10 CFU/mL (Candida albicans; 2 × MIC, 2 h): 5.67 Log10 CFU/mL
Viable counts in Log10 CFU/mL (Candida albicans; 2 × MIC, 4 h): 5.68 Log10 CFU/mL
Viable counts in Log10 CFU/mL (Candida albicans; 2 × MIC, 6 h): 5.58 Log10 CFU/mL
Viable counts in Log10 CFU/mL (Candida albicans; 2 × MIC, 24 h): >6 Log10 CFU/mL
Viable counts in Log10 CFU/mL (Candida albicans; 2 × MIC, 0 h): 5.76 Log10 CFU/mL
Viable counts in Log10 CFU/mL (Candida albicans; 4 × MIC, 1 h): 5.32 Log10 CFU/mL
Viable counts in Log10 CFU/mL (Candida albicans; 4 × MIC, 2 h): 5.33 Log10 CFU/mL
Viable counts in Log10 CFU/mL (Candida albicans; 4 × MIC, 4 h): 5.00 Log10 CFU/mL
Viable counts in Log10 CFU/mL (Candida albicans; 4 × MIC, 6 h): 4.53 Log10 CFU/mL
Viable counts in Log10 CFU/mL (Candida albicans; 4 × MIC, 24 h): <1 Log10 CFU/mL
Viable counts in Log10 CFU/mL (Candida albicans; 4 × MIC, 0 h): 5.69 Log10 CFU/mL
